{"source": "patent US20250204535A1", "about": "“Rodenticide” (priority 2022, published 2025)", "key": {"[1]": {"conditions": "dogs; study of 2020 (Seljetun et al); cited from earlier work"}, "[2]": {"tested_on": "Caco-2 cells", "assay": "Caco-2 permeability assay (bi-directional)", "conditions": "positive control", "method": "Cells were seeded on to Millipore Multiscreen Transwell plates at 1×10^5 cells/cm^2. The cells were cultured in DMEM and media was changed every two or three days. On day 20, the permeability study was performed. […] On the day of the assay, the monolayers were prepared by rinsing both basolateral and apical surfaces twice with Hanks Balanced Salt Solution (HBSS) at the desired pH warmed to 37° C. Cells were then incubated with HBSS at the desired pH in both apical and basolateral compartments for 40 min to stabilise physiological parameters.\nThe fluorescent integrity marker lucifer yellow was also included in the dosing solution. Analytical standards were prepared from test compound water dilutions and transferred to buffer, maintaining a ≤1% v/v water concentration. Assay buffer was composed of supplemented HBSS pH 7.4.\nFor assessment of apical to basolateral (A2B) permeability, HBSS was removed from the apical compartment and replaced with test compound dosing solution. The apical compartment insert was then placed into a companion plate containing fresh buffer (containing ≤1% v/v Water). For assessment of B2A permeability, HBSS was removed from the companion plate and replaced with test compound dosing solution. Fresh buffer (containing ≤1% v/v Water) was added to the apical compartment insert, which was then placed into the companion plate.\nAt 120 min, the apical compartment inserts and the companion plates were separated, and apical and basolateral samples diluted for analysis. Test compound permeability was assessed in duplicate. Compounds of known permeability characteristics were run as controls on each assay plate.\nTest and control compounds were quantified by LC-MS/MS cassette analysis using a 7-point calibration with appropriate dilution of the samples. Cyprotex generic analytical conditions were used. The starting concentration (CO) was determined from the dosing solution and the experimental recovery calculated from CO and both apical and basolateral compartment concentrations.\nThe integrity of the polarised cell monolayers throughout the experiment was checked by monitoring lucifer yellow permeation using fluorometric analysis. Permeation of this paracellular marker is low if monolayers have not been damaged. […] If this was not the case, then the result from the affected monolayer was excluded.\nThe determined concentration (nM≡pmol/mL) of each test sample receiver well is multiplied by the volume of the receiver compartment (apical=0.09 mL, basolateral=0.210 mL) to calculate the amount (pmol) of probe substrate permeating the monolayer.\nWhere dQ/dt is the rate of permeation of the drug across the cells, C0 is the donor compartment concentration at time zero and A is the area of the cell monolayer. C0 was obtained from analysis of the dosing solution.\nAn efflux ratio (ER) was calculated from mean A to B and B to A data. This is derived from:\nPercentage recovery (mass balance) of the test compound or positive control substrate was calculated by dividing the sum of the amount (pmol) in the receiver and donor compartments post-incubation by the amount in the initial donor solution at time zero (C0) and expressing as a percentage.\nThe insert was inserted into the well of a plate to form an Apical chamber (above cells) and basolateral chamber (below cells), with a permeable membrane between the two layers. Compound was then added to either the apical or basolateral chamber and the passage of it monitored into the other chamber. Transfer of the test compound from the apical to basolateral chamber was indicative of cellular uptake, simulating transition of the compound from the intestinal lumen to the bloodstream by uptake receptors (Direction A). […] An Efflux ratio was then calculated from the values obtained for A2B and B2A transmission."}, "[3]": {"tested_on": "Neonatal rat cardiomyocytes", "assay": "Screening purified venom fractions for rat cardiomyocyte toxicity (resazurin)", "type": "cell-based", "method": "(§1) Hearts were collected from euthanised 1-2-day old neonatal rat pups and transferred into filter sterilised ice-cold Hanks balanced salt solution (HBSS) containing 2% Pen-strep. Hearts were washed in the HBSS, any non-heart tissue removed and then cut into 1-3 mm pieces and placed in 40 ml filter sterilised, ice cold 0.1% trypsin/HBSS. The heart pieces in trypsin were place in a large ice bucket and incubated overnight at 4° C. on a rocker with gentle agitation to allow the tissue to digest.\nThe following day, all trypsin was aspirated from the tissue and the tissue transferred evenly into 2 ml Eppendorf tubes. The tissue was then digested further using a 37° C. 1 mg/ml collagenase/HBSS (filter sterilised) solution. […]\n(§2) Neonatal rat cardiomyocytes and cardiac fibroblasts were treated with purified venom fractions suspected of being cardiotoxins at doses of 12.5, 7.5, 6 μg/ml, with rat cardiomyocytes being treated at additional concentrations of 3.5, 2.5, 1 and 0.5 μg/ml for 2 hs in a humidified incubator at 37° C., 5% CO2. […] The change in fluorescence of the resazurin dye was monitored over a 5 h timeframe using a BMG Fluostar plate reader. Percent inhibition of both cell types in response to each fraction at each dose were calculated and plotted graphically."}, "[4]": {"tested_on": "neonatal rat cardiac fibroblast cells", "assay": "Screening purified venom fractions for rat cardiac fibroblast toxicity (resazurin)", "type": "cell-based", "method": "as §1\nThe following day, all trypsin was aspirated from the tissue and the tissue transferred evenly into 2 ml Eppendorf tubes. The tissue was then digested further using a 37° C. 1 mg/ml collagenase/HBSS (filter sterilised) solution. For each collagenase digestion, 2 ml of enzyme buffer was added to all Eppendorf tubes and the tubes incubated in a 37° C. heating block for 2 mins with 400 rpm agitation. The supernatant from the first two digestions was discarded. After each of the following digestion steps, the tissue was gently triturated using a pipette to release cells. Once trituration was complete the supernatant was retained, added to a tube containing 10 ml cell culture media and stored on ice.\nAll cell containing supernatants were filtered through a 250 μm cell strainer to remove any potentially undigested tissue and myocytes separated from cardiac fibroblast by spinning the supernatant at 1800 g for 45 mins through a Percoll gradient. […]\nas §2"}, "[5]": {"tested_on": "Neonatal rat cardiomyocytes", "assay": "Screening purified venom fractions for alterations to cardiomyocyte beat rates", "type": "cell-based", "conditions": "for Highest Achieved Fold Increases in Beat Rate: 1 h; for fold increases to beat rate: dose of 6 μg/ml", "method": "Neonatal rat cardiomyocytes were isolated as via standard protocol and seeded at a density of 100,000 cells/96 well. Once myocyte cultures were beating spontaneously in uniform sheets, they were videoed well-by-well using a microscope camera to determine pre-dose beat rates/min. […] Cells were incubated in each fraction in a humidified incubator at 37° C., 5% CO2 for 1 h. After 1 h videos of the cells were re-recorded to obtain the post-dosing beat rate/minute. Fold changes in beat frequency were calculated for each dosed well pair."}, "[6]": {"tested_on": "Human IPSC-derived cardiomyocytes", "assay": "Six lead fractions: toxicity to human IPSC-derived cardiomyocytes (resazurin)", "type": "cell-based", "conditions": "for cytotoxicity against human IPSC-derived cardiomyocytes: 7.5, 6, 3.5, 2.5 and 1 μg/ml, 2 h, FIG. 3", "method": "Human IPSC-derived cardiomyocytes were purchased from Axol Biosciences and cultured as via their standard methodology. Briefly, cells were recovered from liquid nitrogen storage when required and the cells transferred dropwise into 10 ml of pre-warmed (37° C.) plating media (cardiomyocyte maintenance media+10% FCS+10 μM ROCK inhibitor). Cells were centrifuged at 200×g for 5 mins at room temperature. The supernatant was aspirated from the cell pellet and the cell pellet gently resuspended in 1 ml plating media. Cells were counted using a haemocytometer and trypan blue staining. Cells were plated at a seeding density of 10-20,000 cells/well in fibronectin pre-coated 384 well plates. Cells were incubated at 37° C., 5% CO2 in a humidified incubator overnight before the plating media was removed the following day and replace with fresh maintenance media (No FCS, no ROCK inhibitor). Partial media changes were performed every 2-days until cells formed a single continuous sheet of spontaneously beating cardiomyocytes (7-10 day in culture).\nOnce beating spontaneously, cells were treated with the six lead fractions diluted in maintenance media to final working concentrations of 7.5, 6, 3.5, 2.5 and 1 μg/ml. 30 μl of each fraction dilution was added to triplicate wells of cells and incubated for 2 h at 37° C., 5% CO2 in a humidified incubator. After 2 h, resazurin dye at a final working concentration of 160 μM were added to all wells and the change in fluorescence of the plate monitored over a 5 h timeframe using a BMG Labtech Fluostar plate reader. Percent toxicity was calculated from triplicate wells at each dose and plotted graphically.\nHuman IPSC derived cardiomyocytes were dosed in triplicate with a serial dilution of each of the six venom fractions (7.5, 6, 3.5, 2.5 and 1 μg/ml) for 2 hs at 37° C., 5% CO2 before resazurin dye was added and the change in colour and fluorescence monitored for the following 5 hrs. Percentage toxicity was calculated for each fraction at all doses and plotted graphically (FIG. 3)."}, "[7]": {"tested_on": "rat neonatal cardiomyocyte cells", "type": "cell-based", "conditions": "6 μg/ml, rat cardiomyocytes", "method": "Thermal stability of the six lead fractions was investigated. Aliquots of each fraction were heated in a heat block to 37° C. (unheated), 60° C., 80° C. and 100° C. before being used to treat rat neonatal cardiomyocyte cells at a dose of 6 μg/ml. Cardiomyocyte toxicity was assessed after 24 hrs of dosing at each temperature against a similar aliquot of each fraction that had been unheated before dosing. After 24 h, 160 μM Resazurin dye was added to all cells and the change in cardiomyocyte cell viability/metabolism monitored every hour up to 5 h post dye addition. An additional measurement was recorded 24 hs after the dye had been added."}, "[8]": {"conditions": "any of the tested doses, up to 12.5 μg/ml"}}, "note": "Marks after values point to notes of the source that are not given here."}
{"molecule": "O=c1oc2ccccc2c(O)c1C1CC(c2ccc(-c3ccc(Br)cc3)cc2)Cc2ccccc21", "note": "(stereo not shown) [Brodifacoum, 3-[3-(4′-bromobiphenyl-4-yl)-1,2,3,4-tetrahydronaphth-1-yl]-4-hydroxycoumarin]", "values": [{"measurement": "time present in dog faeces after a single ingestion", "setting": "[1]", "result": "more than 700 days"}]}
{"molecule": "O=c1oc2ccccc2c(O)c1C1CC(c2ccc(-c3ccccc3)cc2)Cc2ccccc21", "note": "(stereo not shown) [Difenacoum, 3-[3-p-diphenyl-1,2,3,4-hydronaphth-1-yl]-4-hydroxycoumarin]", "values": [{"measurement": "time present in dog faeces after a single ingestion", "setting": "[1]", "result": "> 650", "unit": "days"}]}
{"molecule": "C[C@]12CC[C@@H]3c4ccc(OS(=O)(=O)O)cc4CC[C@H]3[C@@H]1CCC2=O", "note": "[Estrone 3-sulfate, estrone 3-sulfate]", "values": [{"measurement": "Mean % Recovery", "setting": "[2]; A2B", "result": 68.6, "unit": "%"}, {"measurement": "Papp Mean", "setting": "[2]; A2B, 120 min, pH 7.4", "result": "0.225 ×10^−6 cms^−1"}, {"measurement": "Papp Rep 1", "setting": "[2]; A2B, 120 min, pH 7.4", "result": "0.225 ×10^−6 cms^−1"}, {"measurement": "Mean % Recovery", "setting": "[2]; B2A", "result": 85.7, "unit": "%"}, {"measurement": "Papp Mean", "setting": "[2]; B2A, 120 min, pH 7.4", "result": "34.9 ×10^−6 cms^−1"}, {"measurement": "Papp Rep 1", "setting": "[2]; B2A, 120 min, pH 7.4", "result": "33.1 ×10^−6 cms^−1"}, {"measurement": "Papp Rep 2", "setting": "[2]; B2A, 120 min, pH 7.4", "result": "36.6 ×10^−6 cms^−1"}, {"measurement": "ER (efflux ratio)", "setting": "[2]; from mean A to B and B to A data", "result": "155 ^b"}]}
{"molecule": "N.aan_I15_R4 (LKCHKLVPPVWKTCPEGKNLCYKMFMVSTSTVPVKRGCIDVCPKDSALVKYVCCSTDKCN)", "values": [{"measurement": "toxicity to rat cardiomyocytes (in words)", "setting": "[3]; [8]", "result": "no visibly or detectible toxicity"}, {"measurement": "toxicity to cardiac fibroblasts (in words)", "setting": "[4]; [8]", "result": "no visibly or detectible toxicity"}, {"measurement": "Highest Achieved Fold Increases in Beat Rate", "setting": "[5]; Dose 6 μg/ml", "result": 3.50, "unit": "fold"}, {"measurement": "fold increases to beat rate", "setting": "[5]", "result": "greater than 3.5 fold"}, {"measurement": "cytotoxicity against human IPSC-derived cardiomyocytes", "setting": "[6]", "result": "no observable cardiomyocyte cellular toxicity"}, {"measurement": "cytotoxicity against human IPSC-derived cardiomyocytes", "setting": "[6]; listed as N.ann_I15_R4", "result": "low levels of cytotoxicity"}, {"measurement": "reduction of cardiomyocyte toxicity after heating", "setting": "[7]; fraction heated at 100° C. vs 37° C., 24 h", "result": "~10", "unit": "%"}]}
{"molecule": "N.atr_I28_R3 (LKCNKLVPLFYKTCPAGKNLCYKMFMVSNLTVPVKRGCIDVCPKSSLLVKYVCCNTDRCN)", "values": [{"measurement": "Highest Achieved Fold Increases in Beat Rate", "setting": "[5]; Dose 6 μg/ml", "result": 5.35, "unit": "fold"}, {"measurement": "fold increases to beat rate", "setting": "[5]", "result": "greater than 5 fold"}, {"measurement": "toxicity in human IPSC-derived cells compared to rodent cardiomyocytes", "setting": "[6]; 3.5 μg/ml", "result": "reduction in toxicity"}]}
{"molecule": "N.naj_I25_R3 (LKCNKLVPLFYKTCPAGKDLCYKMYMVATPKVPVKRGCIDVCPKSSLLVKYVCCNTDRCN)", "values": [{"measurement": "doses showing rat cardiomyocyte toxicity", "setting": "[3]; neonatal rat cardiomyocytes", "result": "≥ 6", "unit": "µg/mL"}, {"measurement": "doses showing cardiac fibroblast toxicity", "setting": "[4]; neonatal rat cardiac fibroblasts", "result": 12.5, "unit": "µg/mL"}, {"measurement": "Highest Achieved Fold Increases in Beat Rate", "setting": "[5]; Dose 3.5 μg/ml", "result": 13.75, "unit": "fold"}, {"measurement": "fold increases to beat rate", "setting": "[5]", "result": "greater than 8.5 fold"}, {"measurement": "thermal stability (change in cytotoxic activity after heating)", "setting": "[7]; 37, 60, 80, 100° C., FIG. 4", "result": "no significant changes in the activity"}]}
